From patent US6509362B2, “N-phenylamide and N-pyridylamide derivatives, method of preparing them and pharmaceutical compositions containing them” (Merck Patent Gesellschaft mit Beschraenkter Haftung, priority 1997, dated 2003)
pIC50: −log10 of the molar value.

How the values were obtained:
hepatic ACAT = test: Test A: in vitro hepatic ACAT inhibition in rat liver microsomes; type: biochemical, rat (male Wistar); conditions: 14C-oleyl coenzyme A, read-out: IC50 (concentration of compound inhibiting the ACAT activity by 50%)
Method: Test A: measurement of in vitro hepatic ACAT inhibition in rats: male Wistar rats weighing 220-250 g were sacrificed by cervical dislocation; the liver was removed and homogenised to prepare the microsomal fraction by ultracentrifugation; these microsomes were incubated with ^14C-oleyl coenzyme A according to the method described by P. J. GILLIES et al., Exp. and Mol. Pathol. 1986, 44, 329-339; lipids were extracted from the incubate with a methanol-chloroforme mixture and ^14C-oleyl cholesterol was separated by TLC; the latter represented the measurement of the ACAT activity and the results were expressed in inhibitory concentration 50 (IC50) representing the concentration of compound inhibiting the ACAT activity by 50%.

[1] = test system: intestinal absorption of cholesterol; test: Test B: intestinal absorption of cholesterol in rats; type: in vivo, rat (male Wistar); conditions: Rattus norvegicus; per os, rats fasted 24 h, triton WR 1339 IV, 3H-cholesterol in serum; read-out: ED50 (quantity of compound inhibiting the intestinal absorption of cholesterol by 50%)
Method: Test B: measurement of intestinal absorption of cholesterol in rats; […]; one hour later, […]; three hours later, 1 ml of blood was taken from the retro-orbital sinus: the blood radioactivity determined on 0.1 ml of serum represented the measurement of the absorption of ^3H-cholesterol. The results were expressed in effective dose 50 (ED50) in mg per kg of animal and represented the quantity of compound inhibiting the intestinal absorption of cholesterol by 50%.

[2] = test system: male Wistar rat fed a 2.5% cholesterol enriched diet; test: Test C: hypercholesterolemia model, cholesterol-fed rat; type: in vivo; conditions: dose 0.78 mg/kg, oral
Method: (§1) Test C: hypercholesterolemia model; claim 1 compounds were tested by oral route in animals subjected to a cholesterol-rich diet;

[3] = test system: rabbit fed a 0.5% cholesterol enriched diet; test: Test C: hypercholesterolemia model, cholesterol-fed rabbit; type: in vivo; conditions: dose 0.1 mg/kg, oral
Method: as §1

| melting point | pIC50 (hepatic ACAT) | SMILES | ED50 [1] | total cholesterol lowered ([2]; 2.5% cholesterol diet for 8 days, treated for 2 days) | lipoprotein fraction on which the effect was observed ([2]; cholesterol-fed rat) | total cholesterol decreased ([3]; 0.5% cholesterol diet for 15 days, treated simultaneously) | lipoprotein fraction on which the effect was observed ([3]; cholesterol-fed rabbit) |
| --- | --- | --- | --- | --- | --- | --- | --- |
| 204 to 206 °C |  | CSc1cc(C)nc(SC)c1NC(=O)CC=CC1=C(c2ccccc2)c2ccccc2OC1 [Example 17, N-[2,4-Dimethylthio-6-methyl-3-pyridyl]-4-(4-phenyl-2H-3-benzo[b]pyranyl)but-3-enamide] |  |  |  |  |  |
|  | 7.03 | CSc1cc(C)nc(SC)c1NC(=O)CC1=C(c2ccccc2)c2ccccc2OC1 [Example 1, N-[2,4-Dimethylthio-6-methyl-3-pyridyl]-2-(4-phenyl-2H-3-benzo[b]pyranyl)acetamide] | 0.005 mg/kg | 50% | mainly observed on VLDL | 70% | mainly observed on VLDL |
| 218 to 220 °C | 7.13 | CSc1cc(C)nc(SC)c1NC(=O)CC1=C(c2ccccc2)c2ccccc2CC1 [Example 4] | 0.038 mg/kg |  |  |  |  |
| 234 to 236 °C | 7.51 | CSc1cc(C)nc(SC)c1NC(=O)CC1=C(c2ccc(F)cc2)c2ccccc2OC1 [Example 6] | 0.023 mg/kg |  |  |  |  |
